According to patent US20220214361A1, “Method for Screening Candidate Drug for Treating Degenerative Brain Diseases” (THE INDUSTRY & ACADEMIC COOPERATION IN CHUNGNAM NATIONAL …, priority 2019, published 2022):
Entries after “also recorded” stand apart in the source; their conditions may differ.

Assays:
[1] = test system: FAF1 protein secretion in SH-SY5Y cells overexpressing FAF1; assay: Secretion of FAF1 protein into culture medium after Brefeldin A treatment (ER-Golgi pathway), Western blotting; format: cell-based, human; conditions: 10 μM, 24 hours, serum-free DMEM, SH-SY5Y cells transfected with 3x Flag tag-FAF1 vector, FIG. 2b
Method: (§1) Particularly, SH-SY5Y cells were aliquoted into 60 mm culture dishes at the density of 5×10^5 cells/dish, and subcultured in DMEM (Dulbecco/s Modified Eagle's Medium) supplemented with antibiotics and 10% FBS (fetal bovine serum) under the conditions of 37° C. and 5% CO2 for 24 hours. The cultured SH-SY5Y cells were transfected with 2 μg of 3x Flag tag-FAF1 expression vector to overexpress FAF1 protein, cultured for 24 hours, and then washed with PPS buffer. Thereafter, the medium was replaced with serum-free DMEM (Dulbecco/s Modified Eagle's Medium), and the cells were treated with 10 μM Brefeldin A (BFA), a compound that inhibits protein secretion through the ER-Golgi pathway, and further cultured in an incubator for 24 hours. The medium was transferred to a 15 ml tube and centrifuged at 1500 rpm for 2 minutes to obtain a supernatant. The obtained supernatant was placed in Amicon Ultra-4 Centrifugal Filter, and centrifuged again at 4000×g, 4° C. for 15 minutes. The protein filtered by the filter was analyzed by Western blotting.

[2] = test system: FAF1 protein secretion in SH-SY5Y cells overexpressing FAF1; assay: Secretion of FAF1 protein into culture medium after treatment with compounds that increase or decrease exosome secretion, Western blotting; format: cell-based, human; conditions: 10 μM, 24 hours, serum-free DMEM, SH-SY5Y cells transfected with 3x Flag tag-FAF1 vector, FIG. 3
Method: as §1, with “PBS” for “PPS”, “Monensin” for “Brefeldin A (BFA), a”, “to increase exosome” for “that inhibits protein”, “and 10 μM GW4869 compound to decrease exosome secretion,” for “through the ER-Golgi pathway,”, “cultured” for “cultured in an incubator”

Row | Structure (SMILES) | expression level of FAF1 protein (secreted into culture medium) versus group not treated [1] | secretion amount of FAF1 compared to control group [2]
1 | C[C@H]1CCC/C=C/[C@@H]2C[C@H](O)C[C@H]2[C@H](O)/C=C/C(=O)O1 [Brefeldin A] | constant; also recorded: no difference | –
2 | O=C(/C=C/c1ccc(/C=C/C(=O)Nc2ccc(C3=NCCN3)cc2)cc1)Nc1ccc(C2=NCCN2)cc1 [GW4869] | – | decreased
3 | CC[C@@]1([C@@H]2O[C@@H]([C@H]3O[C@@](O)(CO)[C@H](C)C[C@@H]3C)C[C@@H]2C)CC[C@H]([C@]2(C)CC[C@]3(C[C@H](O)[C@@H](C)[C@@H]([C@@H](C)[C@@H](OC)[C@H](C)C(=O)O)O3)O2)O1 [Monensin] | – | significantly increased
